In ChEMBL document CHEMBL1150961, “Tenuecyclamides A-D, cyclic hexapeptides from the cyanobacterium Nostoc spongiaeforme var. tenue” (1998):

Test system: Paracentrotus lividus
Assay: Inhibition of sea urchin egg fertilization by sea urchin sperm assessed as inhibition of divided eggs
Type: functional

| SMILES | ED100 [µM] |
| --- | --- |
| Cc1oc2nc1C(=O)NC(C)c1nc(cs1)C(=O)NC(C)c1nc(cs1)C(=O)N[C@H]2C (stereo partly drawn) [TENUECYCLAMIDE A] | 10.8 |
| CSCC[C@@H]1NC(=O)c2csc(n2)CNC(=O)c2nc(oc2C)[C@H](C)NC(=O)c2csc1n2 [TENUECYCLAMIDE C] | 9 |
| Cc1oc2nc1C(=O)NCc1nc(cs1)C(=O)N[C@@H](CC[S+](C)[O-])c1nc(cs1)C(=O)N[C@H]2C (stereo partly drawn) [TENUECYCLAMIDE D] | 19.1 |
